Source: patent US8541407B2 (ArQule, Inc., priority 2010, dated 2013)
pIC50: −log10 of the molar value.

Experiments:
AKT1 [1] = target: T1, AKT1 (Homo sapiens (Human), UniProt P31749); assay: Inactive Akt Alpha Screen Assay; details: non *labeled: Akt Alpha Screen assay; read-out: AKT1 biochemical assay, IC50
How it was run: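 AKT1 activated in situ by PDK1, MAPKAPK2, lipid vesicles and ATP, then phosphorylating biotinylated crosstide for 30 min at room temperature. Stopped with 10 mM EDTA; phosphopeptide detected by AlphaScreen using phospho-AKT substrate antibody (1:350), Protein A acceptor and streptavidin donor beads, 90 min dark, ex 640/em 570 nm.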

A2780 = assay: MTS Assay, cell proliferation analysis (A2780); type: cell-based; details: Homo sapiens; A2780 cells; 72 hours; 10 Percent FBS
Experimental: (§1) Cell proliferation analysis. Cell survival was determined by the MTS assay. Briefly, cells were plated in a 96-well plate at 2,000-10,000 cells per well, cultured for 24 hours in complete growth medium, and then treated with representative compounds of the invention or combinations thereof for 72 hours. MTS was added and incubated for 4 hours, followed by assessment of cell viability by using the microplate reader at 570 nm. Data were normalized to untreated controls and analyzed.

AN3-CA = assay: MTS Assay, cell proliferation analysis (AN3-CA); type: cell-based; details: Homo sapiens; AN3-CA cells; 72 hours; 10 Percent FBS
Experimental: as §1

IGROV-1 = assay: MTS Assay, cell proliferation analysis (IGROV-1); type: cell-based; details: Homo sapiens; IGROV-1 cells; 72 hours; 10 Percent FBS
Experimental: as §1

AKT1 [2] = target: T1, AKT1; assay: Inactive Akt HTRF Assay (AKT1); details: *labeled: Akt HTFR assay; read-out: AKT1 biochemical assay, IC50
Experimental: AKT1 activity was assayed using CisBio KinEASE™ HTRF Assay technology. This technology utilizes a proprietary biotinylated peptide substrate (STKS3), streptavidin labeled XL665 antibody, and STK antibody-Eu^3+-cryptate. AKT1 activation was achieved by the addition of the activating kinases PDK1 and MAPKAPK2, lipid vesicles, and ATP. The extent of STKS3 biotinylated peptide phosphorylation was determined using a phospho-STK antibody-Eu^3+-cryptate and streptavidin labeled XL665 antibody. XL665 was stimulated by Eu^3+-cryptate resulting in a TR-FRET signal proportional to the STKS3 phosphorylation level.
Representative compounds of the invention and controls ((S)-1-((5-(3-methyl-1H-indazol-5-yl)pyridin-3-yl)oxy)-3-phenylpropan-2-amine, 1-(1-(4-(7-phenyl-1H-imidazo[4,5-g]quinoxalin-6-yl)benzyl)piperidin-4-yl)-1H-benzo[d]imidazol-2(3H)-one, and 8-(4-(1-aminocyclobutyl)phenyl)-9-phenyl-[1,2,4]triazolo[3,4-f][1,6]naphthyridin-3(2H)-one) were prepared in 10% DMSO at 10-fold the desired final concentration, and added to each well of a reaction plate (Corning 96-well half-area solid black nonbinding surface plate) in a volume of 2.5 μL. […] After a 20 minute pre-incubation at room temperature, the kinase reaction was initiated by the addition of 5 μL of an activation mixture diluted in assay buffer containing biotinylated STKS3, PDK1, MAPKAPK2, DOPS/DOPC, PtdIns(3,4,5)P3, and ATP for final concentrations of 150 nM biotinylated STKS3, 1 nM (AKT1), 2.5 nM (AKT2), or 0.4 nM (AKT3) PDK1, 0.8 nM (AKT1), 2 nM (AKT2), or 0.3 nM (AKT3) MK2, 5.5 μM DOPS, 5.5 μM DOPC, 0.5 μM PtdIns(3,4,5)P3, and 50 μM ATP. The plates were incubated for 30 minutes at room temperature, and then stopped by the addition of 25 μL HTRF Detection Buffer containing phospho-STK antibody-Eu^3+-cryptate and streptavidin labeled XL665 antibody, at dilutions of 1:192 and 1:500 respectively. Final assay dilutions of phospho-STK antibody-Eu^3+-cryptate and streptavidin labeled XL665 antibody were 1:384 and 1:1,000 respectively. Assay plates were incubated for 60 minutes at room temperature, and the plates were read on a Perkin Elmer Envision Multilabel plate reader (excitation: 320 nm, emission I: 665 nm, emission II: 615 nm).

T1 sequence (P31749 whole entry): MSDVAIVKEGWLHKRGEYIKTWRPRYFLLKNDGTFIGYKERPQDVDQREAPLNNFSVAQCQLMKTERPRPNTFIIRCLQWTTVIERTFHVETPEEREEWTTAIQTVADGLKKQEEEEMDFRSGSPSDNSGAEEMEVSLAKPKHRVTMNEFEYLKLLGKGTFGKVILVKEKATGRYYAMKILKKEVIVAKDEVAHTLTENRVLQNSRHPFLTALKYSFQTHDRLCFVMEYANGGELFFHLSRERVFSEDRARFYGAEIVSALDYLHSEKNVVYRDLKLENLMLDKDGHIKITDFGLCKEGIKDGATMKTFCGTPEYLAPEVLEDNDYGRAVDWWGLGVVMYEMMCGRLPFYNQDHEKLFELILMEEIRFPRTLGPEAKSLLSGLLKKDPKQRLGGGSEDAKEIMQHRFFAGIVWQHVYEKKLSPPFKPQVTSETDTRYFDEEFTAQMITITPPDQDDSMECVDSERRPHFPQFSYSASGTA

| pIC50 (AKT1 [1]) | pIC50 (A2780) | pIC50 (AKT1 [2]) | SMILES | pIC50 (AN3-CA) | pIC50 (IGROV-1) |
| --- | --- | --- | --- | --- | --- |
|  |  | 5.37 | CC(C)(C)OC(=O)NCCc1ccc(-c2nnc3n2-c2cccnc2Nc2ccccc2-3)cc1 [Example 212, tert-butyl 4-(9H-benzo[f]pyrido[2,3-b][1,2,4]triazolo[4,3-d][1,4]diazepin-3-yl)phenethylcarbamate] |  |  |
|  |  | 4.85 | CC(C)(C)OC(=O)NCc1ccc(-c2nnc3n2-c2cccnc2Nc2ccccc2-3)cc1 [Example 213, tert-butyl 4-(9H-benzo[f]pyrido[2,3-b][1,2,4]triazolo[4,3-d][1,4]diazepin-3-yl)benzylcarbamate] |  |  |
|  |  | 4.85 | NCCc1ccc(-c2nnc3n2-c2cccnc2Nc2ccccc2-3)cc1 [Example 214, 2-(4-(9H-benzo[f]pyrido[2,3-b][1,2,4]triazolo[4,3-d][1,4]diazepin-3-yl)phenyl)ethanamine] |  |  |
|  |  | 5.12 | COc1cccc(C(=O)NC2CCN(Cc3ccc(-c4nnc5n4-c4cccnc4Nc4ccccc4-5)cc3)CC2)c1 [Example 215, N-(1-(4-(9H-benzo[f]pyrido[2,3-b][1,2,4]triazolo[4,3-d][1,4]diazepin-3-yl)benzyl)piperidin-4-yl)-3-methoxybenzamide] |  |  |
| 6.89 | 4.80 |  | NC1(c2ccc(-c3nnc4n3-c3cccnc3Nc3ccc(Br)cc3-4)cc2)CCC1 [Example 219, 1-(4-(12-bromo-9H-benzo[f]pyrido[2,3-b][1,2,4]triazolo[4,3-d][1,4]diazepin-3-yl)phenyl)cyclobutanamine] | 4.35 | 5.00 |
| 7.02 | 4.89 |  | Brc1ccc2c(c1)-c1nnc(-c3ccc(CN4CCC(c5nnc(-c6ccccn6)[nH]5)CC4)cc3)n1-c1cccnc1N2 [Example 228, 12-bromo-3-(4-((4-(5-(pyridin-2-yl)-4H-1,2,4-triazol-3-yl)piperidin-1-yl)methyl)phenyl)-9H-benzo[f]pyrido[2,3-b][1,2,4]triazolo[4,3-d][1,4]diazepine] | 4.25 | 5.22 |

More lines, now with the values behind:

| SMILES | pIC50 (AKT1 [1]) | pIC50 (A2780) | pIC50 (AKT1 [2]) | pIC50 (AN3-CA) | pIC50 (IGROV-1) |
| --- | --- | --- | --- | --- | --- |
| c1ccc(-c2nnc(C3CCN(Cc4ccc(-c5nnc6n5-c5cccnc5Nc5ccccc5-6)cc4)CC3)[nH]2)nc1 [Example 63, 3-(4-((4-(5-(pyridin-2-yl)-4H-1,2,4-triazol-3-yl)piperidin-1-yl)methyl)phenyl)-9H-benzo[f]pyrido[2,3-b][1,2,4]triazolo[4,3-d][1,4]diazepine] | 7.08 | 4.77 |  | 4.47 | 5.00 |
| CN(C)c1ccc(C(=O)NCc2ccc(-c3nnc4n3-c3cccnc3Nc3ccccc3-4)cc2)cc1 [Example 98, N-(4-(9H-benzo[f]pyrido[2,3-b][1,2,4]triazolo[4,3-d][1,4]diazepin-3-yl)benzyl)-4-(dimethylamino)benzamide] | 6.96 | 5.22 |  | 5.10 | < 4.00 |
| NC1(c2ccc(-c3nnc4n3-c3cccnc3Nc3ccccc3-4)cc2)CCC1 [Example 126, 1-(4-(9H-benzo[f]pyrido[2,3-b][1,2,4]triazolo[4,3-d][1,4]diazepin-3-yl)phenyl)cyclobutanamine] | 7.00 | 4.51 |  | 4.40 | 5.22 |
| CC(C)(C)OC(=O)N1CCN(C(=O)c2ccc(-c3nnc4n3-c3cccnc3Nc3ccccc3-4)cc2)CC1 [Example 208, tert-butyl 4-(4-(9H-benzo[f]pyrido[2,3-b][1,2,4]triazolo[4,3-d][1,4]diazepin-3-yl)benzoyl)piperazine-1-carboxylate] |  |  | 4.39 |  |  |
| O=C(c1ccc(-c2nnc3n2-c2cccnc2Nc2ccccc2-3)cc1)N1CCNCC1 [Example 209, (4-(9H-benzo[f]pyrido[2,3-b][1,2,4]triazolo[4,3-d][1,4]diazepin-3-yl)phenyl)(piperazin-1-yl)methanone] |  |  | 4.77 |  |  |
| CC(C)(C)OC(=O)NC1CCN(C(=O)c2ccc(-c3nnc4n3-c3cccnc3Nc3ccccc3-4)cc2)CC1 [Example 210, tert-butyl (1-(4-(9H-benzo[f]pyrido[2,3-b][1,2,4]triazolo[4,3-d][1,4]diazepin-3-yl)benzoyl)piperidin-4-yl)carbamate] |  |  | 4.25 |  |  |
| NC1CCN(C(=O)c2ccc(-c3nnc4n3-c3cccnc3Nc3ccccc3-4)cc2)CC1 [Example 211, (4-(9H-benzo[f]pyrido[2,3-b][1,2,4]triazolo[4,3-d][1,4]diazepin-3-yl)phenyl)(4-aminopiperidin-1-yl)methanone] |  |  | 4.15 |  |  |
